One compound from EP2557075A1, “New triazene compounds for treating cancer” (Trin Therapeutics GmbH, priority 2011, dated 2013) can be followed below.

Where two headings read alike, the source gives them in different places.

The test system of data set [1] is MDA-MB231. The data set can be described thus: Cell cycle analysis by flow cytometry in MDA-MB231 (Experiment 9). It is filed as cell-based. The following applies: MDA-MB231, incubated with IC50, nach 10 bzw. 24 Stunden. The source says: Die Progression durch den Zellzyklus ist charakterisiert durch die mitotische Teilung (M-Phase) und der sich anschließenden Interphase, Die Interphase gliedert sich wiederum in die G1 -, S- und G2-Phase, In der G1-Phase beginnt die Zelle zu wachsen und es liegt ein vollständiger Chromosomensatz vor. In der S-Phase erfolgt die Replikation der DNA, wodurch an ihrem Ende der zweifache Chromosomensatz vorliegt. In der G2-Phase bereitet sich die Zelle auf die mitotische Teilung vor, an dessen Ende wieder der einfache Chromosomensatz vorhanden ist. Zusätzlich zu diesen Phasen kann eine sog. sub-G1-Phase vorliegen. Diese ist charakterisiert durch fragmentierte, apoptotische Zellen, die durch degradierte DNA charakterisiert ist. In welchem Stadium sich die Zelle befindet bzw. arretiert sein kann, lässt sich mittels Durchflusszytometrie bestimmen (Brockhoff et al. 2007; Lenz et al. 2007).
Zellkulturen von MDA-MB231 bzw. HL-60 wurden mit der IC50 (MDA-MB231) bzw. IC90 (HL-60) der beiden Test-Substanzen für bis zu 72 Stunden inkubiert und auf die Zellzyklusentwicklung hin untersucht.

In data set [2] the test system is HepG2. The data set can be described thus: Intracellular metabolisation of triazenes in HepG2 cell culture (Experiment 1). It is filed as in vitro ADME. The following applies: HepG2, 100nmol/ml, 100% FCS, binnen 6 Stunden. As to the method: (§1) Es wird gezeigt, dass Verbindungen nach Beispiel 1 schneller und in größerer Menge intrazellulär metabolisiert werden als die als Vergleichssubstanzen eingesetzten Verbindungen nach Präparat 2 und 5 (entsprechend Verbindungen nach Präparat 2 und Beispiel 2a jeweils der WO 2009/004060).
(§2) Die getesteten Verbindungen wurden wie folgt gelöst: • Erfindungsgemäße Verbindung: • Beispiel 1 : in 20 mg/ml DMSO
(§3) Vergleichssubstanzen: • Präparat 2: in 50mg/ml DMSO, • Präparat 5: in 50mg/ml Wasser.
(§4) Alle drei Substanzen wurden äquimolar in einer Dosis von 100nmol/ml auf 1 x 10^7 HepG2 bzw. MCF-7-Zellen gegeben. Als Zellkulturmedium wurde 100% fötales Kälberserum (FCS) verwendet. Für den Versuch wurde der Gehalt aus Ausgangsprodukt und Metaboliten im Zellüberstand nach 1, 3 und 6 (HepG2) bzw. 1,3 und 20 Stunden (MCF-7) Inkubationszeit ermittelt. Alle drei Substanzen zeigten in Kontrollversuchen mit 100% FCS nach 40 Stunden metabolische Stabilität.

Data set [3] deals with MCF-7-Zellen. The data set can be described thus: Intracellular metabolisation of triazenes in MCF-7 cell culture (Experiment 1). Particulars: MCF-7, 100nmol/ml, 100% FCS. It is filed as in vitro ADME. The procedure:
as §1, §2, §3, §4

Data set [4] deals with Mammakarzinome. The data set can be described thus: Benzidine-induced mammary carcinoma in female rats (Experiment 6). It is filed as in vivo, Ratten. Particulars: s.c. or peroral, observation to day 30, percent median vs. start of treatment. The procedure: Die Mammakarzinome werden durch subkutane Injektionen von in physiologischer Kochsalz-Lösung suspendiertem Benzidin an weiblichen Ratten induziert. Je nach Art des Rattenstammes sind dazu unterschiedlich hohe Gesamtdosen und verschieden lange Induktionszeiten erforderlich. Bei zwei untersuchten Wistar-Stämmen (Züchter: Spiegel bzw. Winkelmann) erscheinen die Tumoren nach einer Induktionszeit von 150-330 Tagen und einer Gesamtdosis von 1000 bis 1225mg/kg Benzidin subkutan. Bei zwei verschiedenen Sprague-Dawley-Stämmen (Züchter: Mus Rattus AG bzw. Winkelmann) genügt schon eine einzige Benzidin-Injektion von 150mg/kg s.c., um nach 60-180 Tagen die Mammakarzinome entstehen zu lassen. Die Mammakarzinome entwickeln sich fast immer multipel. Acht oder mehr Tumoren pro Tier sind keine Seltenheit. Die Tumoren wachsen ziemlich schnell und führen etwa 30 bis 1 20 Tage nach Tastbarwerden zum Tode der Ratten. Nach 30 Tagen ist eine Tumorgröße von 6g zu erwarten (Figur 1 aus DE 01 7931 15).
Die Vergleichssubstanzen wurden für 30 Tage täglich s.c, oder peroral in Dosierungen zwischen 50-200mg/kg verabreicht. Die Verbindung nach Beispiel 1 wurde s.c. über die ersten 7 Tage in Dosierungen zwischen 20 und 100mg/kg, so dann in Dosierungen von 200 bis 1000mg/kg (in Stufen von 100mg/kg) für weitere 10 Tage appliziert. Bis zum Tag 30 erfolgte keine weitere Behandlung. […]

In data set [5] the test system is MDA-MB231. The data set can be described thus: IC50 of triazenes in MDA-MB231 cell line (Experiment 3). Format: cell-based. Particulars: Homo sapiens, MDA-MB-231; IC50 für die MDA-MB231 gemäß Experiment 3; used as incubation concentration for PBC. An excerpt: Die nachfolgenden Experimente 3 und 4 zeigen, dass die erfindungsgemäßen neuen Triazenverbindungen eine vergleichbare Anti-Tumorwirkung (IC50) in zahlreichen Krebszelllinien wie der HepG2 (Leber), HCT8 (Darm), DU-145 (Prostata), MCF-7 und MDA-MB-231 (Brust) und MiaPaca-2 (Bauchspeicheldrüse) bei bis zu 100fach niedrigeren Konzentrationen zeigen als vergleichbare Triazene wie DTIC, TMZ oder Substanzen wie sie in der WO 2009/004060 und der DE 1 7931 1 5 beschrieben sind.
Verschiedene Triazene wie erfindungsgemäße Verbindungen nach Beispiel 1, DTIC, TMZ sowie Verbindungen nach Präparat 2 und 5 (entsprechend Verbindungen nach Präparat 2 und Beispiel 2a jeweils der WO 2009/004060) sowie Verbindungen nach Beispiel 33 der DE1793115 wurden in DMSO bzw. Wasser gelöst.
(§5) Periphäre Blutzellen (PBC) werden jeweils mit der IC50 für die MDA-MB231 gemäß Experiment 3 der entsprechenden Substanzen inkubiert. Es wird gezeigt, dass die erfindungsgemäße Verbindung nach Beispiel 1 nicht mehr DNA-Schädigungen in den PBC erzeugt als eine Negativkontrolle, […]

In data set [6] the test system is periphere Blutzellen (PBC). The data set can be described thus: Cell damage (apoptosis rate, CaspACE assay, flow cytometry) in peripheral blood cells (Experiment 5). Format: cell-based.
From the text: Um die therapeutische Breite der neuen Substanzen abschätzen zu können, wurden periphere Blutzellen (PBC) und hämatologische Zellen (Nalm-6; CEM und U-937) für 24 Stunden mit unterschiedlichen Dosen verschiedener Triazenverbindungen bzw. Doxorubicin als positive Kontrolle für die hämatologischen Zelllinien inkubiert. Das Maß der Zellschädigung (Apoptoserate) wurde mittels CaspACE™ Assay (am Durchflusszytometer) bestimmt.
Verschiedene Triazene wie erfindungsgemäße Verbindungen nach Beispiel 1, TMZ sowie Verbindungen nach Präparat 2 und 5 (entsprechend Verbindungen nach Präparat 2 und Beispiel 2a jeweils der WO 2009/004060) wurden in DMSO bzw. Wasser entsprechend den Angaben in Abbildung 22 gelöst.
as §5

For data set [7], the system named is CEM. The data set can be described thus: Growth inhibition (IC50) in leukaemic CEM cells (Experiment 7). It is filed as cell-based. The following applies: Homo sapiens, CCRF-CEM, 24 Stunden. An excerpt:
Hämatologische Zellen (CEM, HL-60) wurden für 24 Stunden mit unterschiedlichen Dosen verschiedener Triazenverbindungen inkubiert, um die IC50 zu bestimmen.

Regarding `CN(C)N=Nc1ccc(C(=O)c2ccc(O)cc2)cc1` [Beispiel 1], in data set [1], the Zellzyklus result is recorded as “ausgeprägten G2 Arrest nach 10 bzw. 24 Stunden und massivem Zelltod (SubG1)”. For the same compound, in data set [2], the Ausgangssubstanz metabolisiert was determined as 28%. Further, the metabolisiert result in data set [3] (innerhalb von 1 Stunde) is reported as “mehr als der Hälfte”; in data set [3] (nach 3 Stunden), “vollständig metabolisiert”. In addition, the “Entwicklung der Tumorgewichte” value in data set [4] is listed as “zu jedem Beobachtungszeitpunkt langsamer als unter einer Therapie mit den verwendeten Vergleichssubstanzen”. Moreover, the IC50 in data set [5] was determined as 27.5 µM; in data set [7] (mean of Exp. 1-4, read-out: IC50 Mittelwert), 22.8 µM; in data set [7] (read-out: IC50 Exp. 1) it was 23.4 µM; in data set [7] (read-out: IC50 Exp. 2), 29.7 µM; in data set [7] (read-out: IC50 Exp. 3), 23.8 µM; in data set [7] (read-out: IC50 Exp. 4), 14.1 µM. Moreover, in data set [6] (PBC, 24 stündige Inkubation), the “Zellschädigung (Apoptoserate) vs. Negativkontrolle” value is on record as “nicht mehr geschädigt als durch eine Negativkontrolle”. Also, the “% Zellen in Apoptose” value in data set [6] (Versuch 1 Lymphozyten, 24 Stunden incubation at the IC50 for MDA-MB231) is 8,120%.
